Values joined by “and” are separate entries in the source; they are usually repeats but may differ in a detail not shown here. Equal values may be shown once. Inconclusive results and toxic doses are left out. The calls were made as follows: active = survival T/C of 150% or more; inactive = T/C below 125% in these data.
System: P388 leukemia ip, CD2F1 mice, survival T/C
Test: NCI In Vivo Anticancer Drug Screen. Data for tumor model P388 Leukemia (intraperitoneal) in CD2F1 (CDF1) mice
Conditions: endpoint: median survival time, higher = longer survival
In short: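 Mice carrying the transplanted tumor received test compound or vehicle. Survival was recorded in each group, and the value is the treated-group measurement divided by that of the vehicle-treated control group.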

[1] = dose: 60.0 mg/kg/injection, schedule: Q01DX005 (ip), vehicle: saline with Tween-80
[2] = dose: 120.0 mg/kg/injection, schedule: Q01DX005 (ip), vehicle: saline with Tween-80
[3] = dose: 240.0 mg/kg/injection, schedule: Q01DX005 (ip), vehicle: saline with Tween-80
[4] = dose: 50.0 mg/kg/injection, schedule: Q01DX005 (ip), vehicle: Klucel (hydroxypropylcellulose) (HPC)
[5] = dose: 100.0 mg/kg/injection, schedule: Q01DX005 (ip), vehicle: Klucel (hydroxypropylcellulose) (HPC)
[6] = dose: 25.0 mg/kg/injection, schedule: Q01DX005 (ip), vehicle: saline with Tween-80
[7] = dose: 50.0 mg/kg/injection, schedule: Q01DX005 (ip), vehicle: saline with Tween-80
[8] = dose: 100.0 mg/kg/injection, schedule: Q01DX005 (ip), vehicle: saline with Tween-80
[9] = dose: 200.0 mg/kg/injection, schedule: Q01DX005 (ip), vehicle: saline with Tween-80
[10] = dose: 50.0 mg/kg/injection, schedule: Q01DX009 (ip), vehicle: Klucel (hydroxypropylcellulose) (HPC)
[11] = dose: 100.0 mg/kg/injection, schedule: Q01DX009 (ip), vehicle: Klucel (hydroxypropylcellulose) (HPC)
[12] = dose: 200.0 mg/kg/injection, schedule: Q01DX009 (ip), vehicle: Klucel (hydroxypropylcellulose) (HPC)

Measured: T/C

COc1cc2c3cc1Oc1c(OC)c(OC)cc4c1C(Cc1ccc(O)c(c1)-c1cc(ccc1OC)CC3N(C)CC2)N(C)CC4 (centres undefined)
inactive: dose: 0.78 mg/kg/injection, schedule: Q01DX009 (ip), vehicle: Klucel (hydroxypropylcellulose) (HPC) 106 % of control | dose: 1.56 mg/kg/injection, schedule: Q01DX009 (ip), vehicle: Klucel (hydroxypropylcellulose) (HPC) 87 % of control | dose: 3.13 mg/kg/injection, schedule: Q01DX009 (ip), vehicle: Klucel (hydroxypropylcellulose) (HPC) 104 % of control | dose: 6.25 mg/kg/injection, schedule: Q01DX009 (ip), vehicle: Klucel (hydroxypropylcellulose) (HPC) 104 % of control

O=C(O)c1cc2c([nH]1)-c1cccnc1C(=O)C2=O
inactive: [1] 101 % of control | [2] 105 % of control | [3] 101 % of control

CC(C)(C)c1cc2c(O)c(c1)Cc1cc(C(C)(C)C)cc(c1O)Cc1cc(C(C)(C)C)cc(c1O)Cc1cc(C(C)(C)C)cc(c1O)Cc1cc(C(C)(C)C)cc(c1O)Cc1cc(C(C)(C)C)cc(c1O)C2
inactive: [4] 99 % of control | [5] 92 % of control | dose: 200.0 mg/kg/injection, schedule: Q01DX005 (ip), vehicle: Klucel (hydroxypropylcellulose) (HPC) 92 % of control

Brc1ccc2c3c(ccc2c1)OCCOCCOCCOCCOCCOc1ccc2cc(Br)ccc2c1-3
inactive: dose: 100.0 mg/kg/injection, schedule: Q01DX001 (ip), vehicle: saline with Tween-80 104 % of control | dose: 200.0 mg/kg/injection, schedule: Q01DX001 (ip), vehicle: saline with Tween-80 107 % of control | dose: 400.0 mg/kg/injection, schedule: Q01DX001 (ip), vehicle: saline with Tween-80 104 % of control

NCCC(=O)NC(Cc1cnc[nH]1)C(=O)O (centres undefined)
inactive: dose: 50.0 mg/kg/injection, schedule: Q01DX009 (ip), vehicle: saline 104 % of control | dose: 100.0 mg/kg/injection, schedule: Q01DX009 (ip), vehicle: saline 104 % of control | dose: 200.0 mg/kg/injection, schedule: Q01DX009 (ip), vehicle: saline 99 % of control | dose: 400.0 mg/kg/injection, schedule: Q01DX009 (ip), vehicle: saline 98 % of control

Cn1nnn(C)c1=NC#N
inactive: dose: 100.0 mg/kg/injection, schedule: Q01DX001 (ip), vehicle: saline 100 % of control | dose: 200.0 mg/kg/injection, schedule: Q01DX001 (ip), vehicle: saline 107 % of control | dose: 400.0 mg/kg/injection, schedule: Q01DX001 (ip), vehicle: saline 100 % of control

CC(=O)OC1CC2CCC3C(CCC4(C)C3CC([N+]3(C)CCCCC3)C4OC(C)=O)C2(C)CC1[N+]1(C)CCCCC1 (centres undefined)
inactive: dose: 12.5 micrograms/kg/injection, schedule: Q01DX009 (ip), vehicle: saline 103 % of control | dose: 25.0 micrograms/kg/injection, schedule: Q01DX009 (ip), vehicle: saline 100 % of control | dose: 50.0 micrograms/kg/injection, schedule: Q01DX009 (ip), vehicle: saline 103 % of control

O=S1(=O)c2cccc(c2)NC(=S)/C([n+]2ccccc2)=C(/[O-])c2ccc(cc2)CC2CCCCN21 (centres undefined)
inactive: [4] 94 % of control | [5] 87 % of control

COC(=O)CC1(O)C=C(C)C(=O)c2ccccc21 (centres undefined)
inactive: [6] 100 % of control | [7] 101 % of control | [8] 100 % of control | [9] 100 % of control | dose: 400.0 mg/kg/injection, schedule: Q01DX005 (ip), vehicle: saline with Tween-80 101 % of control

O=C(CCSCCC(=O)N/N=C/C(O)C(O)C(O)C(O)CO)N/N=C/C(O)C(O)C(O)C(O)CO (centres undefined)
inactive: [7] 99 % of control | dose: 50.0 mg/kg/injection, schedule: Q01DX005 (ip), vehicle: saline 97 % of control | [8] 98 % of control | dose: 100.0 mg/kg/injection, schedule: Q01DX005 (ip), vehicle: saline 98 % of control | [9] 96 % of control | dose: 200.0 mg/kg/injection, schedule: Q01DX005 (ip), vehicle: saline 99 % of control

CC1(c2ccccc2)CCC(O)CC1CC(=O)O (centres undefined)
inactive: [7] 98 % of control | [8] 100 % of control | [9] 101 % of control

O=C(OCC(OC(=O)c1ccccc1)C(OC(=O)c1ccccc1)C(OC(=O)c1ccccc1)C(OC(=O)c1ccccc1)c1nn[nH]n1)c1ccccc1 (centres undefined)
inactive: dose: 12.5 mg/kg/injection, schedule: Q01DX005 (ip), vehicle: saline with Tween-80 94 % of control | [6] 86 % of control | [7] 90 % of control and 100 % of control | [8] 100 % of control | [9] 96 % of control

COc1cccc2c1C(=O)c1c(O)c3c(c(O)c1C2=O)CC(NO)CC3OC1CC(NC(=O)C(F)(F)F)C(O)C(C)O1 (centres undefined)
inactive: dose: 1.56 mg/kg/injection, schedule: Q01DX009 (ip), vehicle: other 103 % of control and 101 % of control | dose: 3.13 mg/kg/injection, schedule: Q01DX009 (ip), vehicle: other 104 % of control and 106 % of control | dose: 6.25 mg/kg/injection, schedule: Q01DX009 (ip), vehicle: other 108 % of control and 110 % of control | dose: 12.5 mg/kg/injection, schedule: Q01DX009 (ip), vehicle: other 113 % of control | dose: 25.0 mg/kg/injection, schedule: Q01DX009 (ip), vehicle: other 116 % of control and 107 % of control

CC(=O)Nc1ccc(Br)c(NC(C)=O)n1
inactive: dose: 100.0 mg/kg/injection, schedule: Q04DX003 (ip), vehicle: saline with Tween-80 104 % of control | dose: 200.0 mg/kg/injection, schedule: Q04DX003 (ip), vehicle: saline with Tween-80 104 % of control | dose: 400.0 mg/kg/injection, schedule: Q04DX003 (ip), vehicle: saline with Tween-80 109 % of control

OCCCCc1nccc2c1[nH]c1ccccc12
inactive: dose: 12.5 mg/kg/injection, schedule: Q01DX009 (ip), vehicle: Klucel (hydroxypropylcellulose) (HPC) 106 % of control | dose: 25.0 mg/kg/injection, schedule: Q01DX009 (ip), vehicle: Klucel (hydroxypropylcellulose) (HPC) 106 % of control | [10] 104 % of control | [11] 95 % of control

O=C(NC(=O)C(F)(F)C(F)(F)C(F)(F)F)Nc1cccc(F)c1
inactive: dose: 50.0 mg/kg/injection, schedule: Q01DX009 (ip), vehicle: saline with Tween-80 100 % of control | dose: 100.0 mg/kg/injection, schedule: Q01DX009 (ip), vehicle: saline with Tween-80 100 % of control | dose: 200.0 mg/kg/injection, schedule: Q01DX009 (ip), vehicle: saline with Tween-80 100 % of control

CN1CCc2[nH]nc(-c3n[nH]c4c3CN(C)CC4)c2C1
inactive: dose: 60.0 mg/kg/injection, schedule: Q01DX005 (ip), vehicle: saline 100 % of control | dose: 120.0 mg/kg/injection, schedule: Q01DX005 (ip), vehicle: saline 86 % of control | dose: 240.0 mg/kg/injection, schedule: Q01DX005 (ip), vehicle: saline 93 % of control

OCC1OC(n2ncc3c(Cl)ccnc32)C(O)C1O (centres undefined)
inactive: dose: 4.0 mg/kg/injection, schedule: Q01DX005 (ip), vehicle: saline with Tween-80 100 % of control | dose: 8.0 mg/kg/injection, schedule: Q01DX005 (ip), vehicle: saline with Tween-80 103 % of control | dose: 16.0 mg/kg/injection, schedule: Q01DX005 (ip), vehicle: saline with Tween-80 97 % of control | dose: 32.0 mg/kg/injection, schedule: Q01DX005 (ip), vehicle: saline with Tween-80 109 % of control | dose: 64.0 mg/kg/injection, schedule: Q01DX005 (ip), vehicle: saline with Tween-80 100 % of control

ClCCN1c2ccccc2Oc2cc3ccccc3cc21
inactive: [7] 101 % of control | [8] 110 % of control | [9] 100 % of control

COc1cc(/C=C/C(=O)c2c(N)n(C)c(=O)n(C)c2=O)cc(OC)c1OC
inactive: [10] 113 % of control | [11] 115 % of control | [12] 113 % of control

N#CC(C(=O)C(=O)Nc1ccccc1)c1c(Cl)cccc1Cl (centres undefined)
inactive: [1] 98 % of control | [2] 104 % of control | [3] 98 % of control

CCOC(=O)CC(=O)NCCc1cccc(OC)c1OC
inactive: dose: 100.0 mg/kg/injection, schedule: Q04DX003 (ip), vehicle: other 100 % of control | dose: 200.0 mg/kg/injection, schedule: Q04DX003 (ip), vehicle: other 100 % of control | dose: 400.0 mg/kg/injection, schedule: Q04DX003 (ip), vehicle: other 105 % of control

CCN(CC)/C([Se])=N/N=C(\C)c1ccccn1
inactive: dose: 100.0 mg/kg/injection, schedule: Q04DX003 (ip), vehicle: Klucel (hydroxypropylcellulose) (HPC) 108 % of control | dose: 200.0 mg/kg/injection, schedule: Q04DX003 (ip), vehicle: Klucel (hydroxypropylcellulose) (HPC) 102 % of control

Cc1ccc(S(=O)(=O)C(Cl)(SOCc2ccccc2)Sc2ccccc2)cc1 (centres undefined)
inactive: [10] 109 % of control | [11] 100 % of control | [12] 114 % of control

From PubChem BioAssay AID330 (DTP/NCI, 2004)
